Experimental data: PubChem BioAssay (NCI)
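Values below derive from 48-hour exposures of cells grown in 96-well plates, with endpoints linearly interpolated between the two concentrations bracketing the appropriate inhibition level. Definition used: TGI = concentration required for complete inhibition of growth.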

Key:
Experiment in all cases: NCI anticancer screen, dose series, 48 h
[1] = system: OVCAR-5 ovarian
[2] = system: SF-268 CNS
[3] = system: HOP-92 NSCLC
[4] = system: UACC-257 melanoma
[5] = system: NCI-H460 lung
[6] = system: HT29 colon
[7] = system: MALME-3M melanoma
[8] = system: SW-620 colon
[9] = system: SR leukemia
[10] = system: SK-OV-3 ovarian
[11] = system: U251 CNS
[12] = system: OVCAR-3 ovarian
[13] = system: RPMI-8226 leukemia
[14] = system: NCI-H23 lung
[15] = system: SK-MEL-28 melanoma
[16] = system: NCI-H226 lung
[17] = system: SNB-75 CNS
[18] = system: HCT-116 colon
[19] = system: DU-145 prostate
[20] = system: HS 578T breast

In the case of O=Cc1ccccc1COC(=O)c1cc(C(=O)OCc2ccccc2C=O)c(C(=O)OCc2ccccc2C=O)cc1C(=O)OCc1ccccc1C=O, the TGI [1] is reported as > 100 µM, the TGI [2] is reported as > 100 µM and the TGI [3] is reported as > 100 µM. The TGI [4] was > 100 µM, the TGI [5] was > 100 µM and the TGI [6] was > 100 µM. The TGI [7] was > 100 µM, the TGI [8] was > 100 µM and the TGI [9] was > 100 µM. The TGI [10] was > 100 µM, the TGI [11] was > 100 µM and the TGI [12] was > 100 µM. For the same compound, the TGI [13] was > 100 µM, the TGI [14] was > 100 µM and the TGI [15] was > 100 µM. The TGI [16] was > 100 µM, the TGI [17] was 65.4 µM and the TGI [18] was > 100 µM.

For O=C1NC(=S)NC(=O)C1C(c1ccc(O)cc1)C1C(=O)NC(=S)NC1=O, the TGI [1] was > 100 µM, the TGI [3] was > 100 µM and the TGI [4] was > 100 µM. The TGI [5] was > 100 µM, the TGI [6] was > 100 µM and the TGI [7] was > 100 µM. For the same compound, the TGI [8] was > 100 µM, the TGI [11] was > 100 µM and the TGI [12] was > 100 µM. The TGI [13] was > 100 µM, the TGI [14] was > 100 µM and the TGI [19] was > 100 µM. The TGI [15] was > 100 µM, the TGI [16] was > 100 µM and the TGI [18] was > 100 µM.

CC1=CCC(O)C=CC(C)C(O)C(C)C=C(C)C(=O)c2c(O)c(C)cc3c2C(=O)C(N)=C(NC(=O)/C=C\C=C/C=CC(C)C(O)CC1=O)C3=O (configuration not stated) was tested, and the TGI [1] was > 100 µM, the TGI [2] was > 100 µM and the TGI [3] was > 100 µM. For the same compound, the TGI [4] was > 100 µM, the TGI [6] was > 100 µM and the TGI [7] was 82.7 µM. For the same compound, the TGI [8] was > 100 µM, the TGI [10] was > 100 µM and the TGI [11] was > 100 µM. The TGI [12] was > 100 µM, the TGI [13] was > 100 µM and the TGI [14] was > 100 µM. For the same compound, the TGI [15] was > 100 µM, the TGI [16] was > 100 µM and the TGI [17] was > 100 µM. For the same compound, the TGI [18] was 54.4 µM.

N#C/C(=C/NC(N)=S)C(N)=O was tested, and the TGI [1] was > 100 µM, the TGI [2] was > 100 µM and the TGI [3] was > 100 µM. The TGI [4] was > 100 µM, the TGI [5] was > 100 µM and the TGI [6] was > 100 µM. For the same compound, the TGI [8] was > 100 µM, the TGI [10] was > 100 µM and the TGI [11] was > 100 µM. For the same compound, the TGI [12] was > 100 µM, the TGI [14] was > 100 µM and the TGI [19] was > 100 µM. The TGI [15] was > 100 µM, the TGI [16] was > 100 µM and the TGI [17] was > 100 µM. The TGI [18] was > 100 µM.

CCOC(=O)c1ccc(NCc2ccc3oc(=O)c(-c4ccccc4)nc3c2)cc1 was tested, and the TGI [1] was > 100 µM, the TGI [2] was > 100 µM and the TGI [3] was 83 µM. The TGI [4] was 42 µM, the TGI [5] was > 100 µM and the TGI [6] was > 100 µM. For the same compound, the TGI [7] was 38.8 µM, the TGI [8] was 50.4 µM and the TGI [9] was > 100 µM. The TGI [10] was > 100 µM, the TGI [11] was > 100 µM and the TGI [12] was 90.5 µM. The TGI [14] was 44.5 µM, the TGI [19] was > 100 µM and the TGI [15] was 87.3 µM. The TGI [16] was > 100 µM, the TGI [17] was > 100 µM and the TGI [18] was 80.3 µM.

With CC(C)=CCC(O)[C@](C)(O)[C@H]1[C@H](O)C[C@@]2(C)[C@@H]3CCc4cc(O)c(OC5OC(CO)C(O)C(O)C5O)cc4C3(C)C(=O)C[C@]12C (some centres not stated) the TGI [1] was > 100 µM, the TGI [2] was > 100 µM and the TGI [3] was > 100 µM. For the same compound, the TGI [4] was > 100 µM, the TGI [5] was > 100 µM and the TGI [6] was > 100 µM. For the same compound, the TGI [7] was > 100 µM, the TGI [8] was > 100 µM and the TGI [9] was > 100 µM. For the same compound, the TGI [10] was > 100 µM, the TGI [11] was > 100 µM and the TGI [12] was > 100 µM. The TGI [14] was > 100 µM, the TGI [19] was > 100 µM and the TGI [15] was > 100 µM. For the same compound, the TGI [16] was > 100 µM, the TGI [17] was > 100 µM and the TGI [18] was > 100 µM.

With Cn1c(O)c(C(=O)NC2CCCCC2)c(=O)n(C)c1=S the TGI [1] was 38.9 µM, the TGI [2] was 21.6 µM and the TGI [3] was 8.48 µM. The TGI [4] was 28.5 µM, the TGI [5] was 21.9 µM and the TGI [8] was 25 µM. It also gave a TGI [9] of 48.9 µM, a TGI [10] of 23.8 µM and a TGI [11] of 26.7 µM. The TGI [12] was 26.6 µM, the TGI [13] was 17.2 µM and the TGI [14] was 14.5 µM. The TGI [15] was 16.8 µM and the TGI [16] was 30.5 µM.

With O=C(c1ccco1)N(C(=S)OCCOc1ccccc1)c1ccccc1 the TGI [1] was 41.1 µM, the TGI [20] was > 100 µM and the TGI [2] was 35.3 µM. It also gave a TGI [3] of 37.5 µM, a TGI [4] of 37.4 µM and a TGI [5] of 58.6 µM. For the same compound, the TGI [6] was 42.1 µM, the TGI [7] was 40 µM and the TGI [8] was 41.8 µM. It also gave a TGI [10] of 55.3 µM, a TGI [11] of 30.2 µM and a TGI [12] of 32.2 µM. It also gave a TGI [13] of 47.2 µM, a TGI [14] of 39.9 µM and a TGI [19] of 51.6 µM. The TGI [15] was 40.3 µM and the TGI [18] was 32.5 µM.

For CC(C)=C[C@H]1CCC2(OCCO2)[C@]1(C)COCc1ccccc1, the TGI [1] was 82.1 µM, the TGI [2] was > 100 µM and the TGI [4] was 46.4 µM. The TGI [5] was 59 µM, the TGI [7] was > 100 µM and the TGI [8] was > 100 µM. For the same compound, the TGI [10] was > 100 µM, the TGI [12] was 52.7 µM and the TGI [13] was 41.9 µM. For the same compound, the TGI [14] was > 100 µM, the TGI [15] was > 100 µM and the TGI [16] was 46.8 µM. The TGI [17] was > 100 µM and the TGI [18] was > 100 µM.

In the case of O=C(/C=C/c1ccc2ccccc2c1)NCc1ccc(C(=O)NCCc2ccccc2)cc1, the TGI [1] is reported as > 100 µM, the TGI [2] is reported as > 100 µM and the TGI [3] is reported as > 100 µM. The TGI [4] was > 100 µM, the TGI [5] was > 100 µM and the TGI [8] was > 100 µM. The TGI [9] was > 100 µM, the TGI [10] was > 100 µM and the TGI [11] was > 100 µM. For the same compound, the TGI [12] was > 100 µM, the TGI [13] was > 100 µM and the TGI [14] was > 100 µM. For the same compound, the TGI [19] was > 100 µM, the TGI [15] was > 100 µM and the TGI [16] was > 100 µM. For the same compound, the TGI [17] was > 100 µM and the TGI [18] was > 100 µM.

Compound O=C1c2ccsc2C(=O)c2sc(CO)cc21 has a TGI [1] of 2.12 µM, a TGI [20] of 0.191 µM and a TGI [2] of 2.31 µM. It also gave a TGI [3] of 0.994 µM, a TGI [4] of 0.0993 µM and a TGI [5] of 2.17 µM. The TGI [6] was 0.444 µM, the TGI [7] was 1.21 µM and the TGI [8] was 0.164 µM. For the same compound, the TGI [9] was > 10.8 µM, the TGI [10] was 2.97 µM and the TGI [11] was 0.421 µM. The TGI [12] was 2.74 µM, the TGI [14] was 0.394 µM and the TGI [15] was 0.0614 µM. For the same compound, the TGI [16] was 0.643 µM, the TGI [17] was 0.104 µM and the TGI [18] was 0.279 µM.

In the case of NNC(=S)N/N=C(/C(=O)Nc1ccc(Cl)c(Cl)c1)C(C1OC(=O)c2ccccc21)[N+](=O)[O-] (configuration not stated), the TGI [1] is reported as > 100 µM, the TGI [20] is reported as > 100 µM and the TGI [2] is reported as > 100 µM. The TGI [3] was > 100 µM, the TGI [4] was > 100 µM and the TGI [5] was > 100 µM. For the same compound, the TGI [6] was > 100 µM, the TGI [7] was > 100 µM and the TGI [8] was > 100 µM. The TGI [10] was > 100 µM, the TGI [11] was > 100 µM and the TGI [12] was > 100 µM. The TGI [13] was > 100 µM, the TGI [14] was > 100 µM and the TGI [15] was > 100 µM. For the same compound, the TGI [16] was > 100 µM, the TGI [17] was > 100 µM and the TGI [18] was > 100 µM.

With Cc1ccc2c3c1O[C@H]1c4[nH]c5ccccc5c4C[C@@]4(O)[C@@H](C2)N(CC2CC2)CC[C@]314 the TGI [1] was 35.1 µM, the TGI [2] was 30.1 µM and the TGI [3] was 27.5 µM. The TGI [4] was 32.8 µM, the TGI [5] was 30.5 µM and the TGI [6] was 18.7 µM. It also gave a TGI [7] of 28.4 µM, a TGI [8] of 25.4 µM and a TGI [9] of 46.8 µM. It also gave a TGI [10] of 31.5 µM, a TGI [11] of 28.2 µM and a TGI [12] of 27.5 µM. It also gave a TGI [13] of 29.4 µM, a TGI [14] of 39.5 µM and a TGI [19] of 30.5 µM. For the same compound, the TGI [15] was 36.4 µM, the TGI [16] was 30.5 µM and the TGI [18] was 27.9 µM.
